Assay results taken from patent publication US20250235543A1, “MODIFIED PROTEINS AND PROTEIN DEGRADERS” (Cullgen (Shanghai), Inc., priority 2021, published 2025).

Each compound was assayed on P300/CBP (assay: P300/CBP cellular protein degradation).
Format: cell-based
Experimental: Cultured cells were washed with cold PBS once and lysed in cold RIPA buffer supplemented with protease inhibitors and phosphatase inhibitors (Beyotime Biotechnology). The solutions were then incubated at 4° C. for 30 min with gentle agitation to fully lysed cells. Cell lysates were centrifuged at 13,000 rpm for 10 min at 4° C. and pellets were discarded. Total protein concentrations in the lysates were determined following BCA assays (Beyotime Biotechnology). Cell lysates were mixed with Laemmli loading buffer and heated at 99° C. for 5 min. Proteins were resolved on SDS-PAGE and visualized using Western ECL Substrate kits on a ChemiDoc MP Imaging system (Bio-Rad). Protein bands were quantitated using the Image Lab software provided by Bio-Rad.

SMILES | P300/CBP Degradation (100 nM)
CC(=O)N1CCc2c(c(N3CCCc4cc(-c5cnn(C)c5)c(C(F)F)cc43)nn2C2CCN(C(=O)CCCC(=O)Nc3ccccc3C(=O)Nc3nc(C)c([N+](=O)[O-])s3)CC2)C1 [CPD-200, 2-(5-(4-(5-Acetyl-3-(7-(difluoromethyl)-6-(1-methyl-1H-pyrazol-4-yl)-3,4-dihydroquinolin-1(2H)-yl)-4,5,6,7-tetrahydro-1H-pyrazolo[4,3-c]pyridin-1-yl)piperidin-1-yl)-5-oxopentanamido)-N-(4-methyl-5-nitrothiazol-2-yl)benzamide] | D (degradation activity < 30%)
CC(=O)N1CCc2c(c(N3CCCc4cc(-c5cnn(C)c5)c(C(F)F)cc43)nn2C2CCN(C(=O)CCCCC(=O)Nc3ccccc3C(=O)Nc3nc(C)c([N+](=O)[O-])s3)CC2)C1 [CPD-201, 2-(6-(4-(5-Acetyl-3-(7-(difluoromethyl)-6-(1-methyl-1H-pyrazol-4-yl)-3,4-dihydroquinolin-1(2H)-yl)-4,5,6,7-tetrahydro-1H-pyrazolo[4,3-c]pyridin-1-yl)piperidin-1-yl)-6-oxohexanamido)-N-(4-methyl-5-nitrothiazol-2-yl)benzamide] | D (degradation activity < 30%)
CC(=O)N1CCc2c(c(N3CCCc4cc(-c5cnn(C)c5)c(C(F)F)cc43)nn2C2CCN(CC(=O)NCCOCCNc3ccc(C(=O)Nc4ncc(C)s4)c(C)c3)CC2)C1 [CPD-197, 4-((2-(2-(2-(4-(5-Acetyl-3-(7-(difluoromethyl)-6-(1-methyl-1H-pyrazol-4-yl)-3,4-dihydroquinolin-1(2H)-yl)-4,5,6,7-tetrahydro-1H-pyrazolo[4,3-c]pyridin-1-yl)piperidin-1-yl)acetamido)ethoxy)ethyl)amino)-2-methyl-N-(5-methylthiazol-2-yl)benzamide] | D (degradation activity < 30%)
CC(=O)N1CCc2c(c(N3CCCc4cc(-c5cnn(C)c5)c(C(F)F)cc43)nn2C2CCN(C(=O)CCCCCCCC(=O)Nc3ccccc3C(=O)Nc3nc(C)c([N+](=O)[O-])s3)CC2)C1 [CPD-204, 2-(9-(4-(5-Acetyl-3-(7-(difluoromethyl)-6-(1-methyl-1H-pyrazol-4-yl)-3,4-dihydroquinolin-1(2H)-yl)-4,5,6,7-tetrahydro-1H-pyrazolo[4,3-c]pyridin-1-yl)piperidin-1-yl)-9-oxononanamido)-N-(4-methyl-5-nitrothiazol-2-yl)benzamide] | D (degradation activity < 30%)
CC(=O)N1CCc2c(c(N3CCCc4cc(-c5cnn(C)c5)c(C(F)F)cc43)nn2C2CCN(CC(=O)NCCCCCCCC(=O)Nc3ccccc3C(=O)Nc3nc(C)c([N+](=O)[O-])s3)CC2)C1 [CPD-215, 2-(8-(2-(4-(5-Acetyl-3-(7-(difluoromethyl)-6-(1-methyl-1H-pyrazol-4-yl)-3,4-dihydroquinolin-1(2H)-yl)-4,5,6,7-tetrahydro-1H-pyrazolo[4,3-c]pyridin-1-yl)piperidin-1-yl)acetamido)octanamido)-N-(4-methyl-5-nitrothiazol-2-yl)benzamide] | D (degradation activity < 30%)
CC(=O)N1CCc2c(c(N3CCCc4cc(-c5cnn(C)c5)c(C(F)F)cc43)nn2C2CCN(C(=O)CCCCCCCCCCCC(=O)Nc3ccccc3C(=O)Nc3nc(C)c([N+](=O)[O-])s3)CC2)C1 [CPD-208, 2-(13-(4-(5-Acetyl-3-(7-(difluoromethyl)-6-(1-methyl-1H-pyrazol-4-yl)-3,4-dihydroquinolin-1(2H)-yl)-4,5,6,7-tetrahydro-1H-pyrazolo[4,3-c]pyridin-1-yl)piperidin-1-yl)-13-oxotridecanamido)-N-(4-methyl-5-nitrothiazol-2-yl)benzamide] | D (degradation activity < 30%)
CC(=O)N1CCc2c(c(N3CCCc4cc(-c5cnn(C)c5)c(C(F)F)cc43)nn2C2CCN(CC(=O)NCCCCCCNc3ccc(C(=O)Nc4ncc(C)s4)c(C)c3)CC2)C1 [CPD-193, 4-((6-(2-(4-(A-Acetyl-3-(7-(difluoromethyl)-6-(1-methyl-1H-pyrazol-4-yl)-3,4-dihydroquinolin-1(2H)-yl)-4,5,6,7-tetrahydro-1H-pyrazolo[4,3-c]pyridin-1-yl)piperidin-1-yl)acetamido)hexyl)amino)-2-methyl-N-(5-methylthiazol-2-yl)benzamide] | D (degradation activity < 30%)
CC(=O)N1CCc2c(c(N3CCCc4cc(-c5cnn(C)c5)c(C(F)F)cc43)nn2C2CCN(CC(=O)NCCCCCCC(=O)Nc3ccccc3C(=O)Nc3nc(C)c([N+](=O)[O-])s3)CC2)C1 [CPD-214, 2-(7-(2-(4-(5-Acetyl-3-(7-(difluoromethyl)-6-(1-methyl-1H-pyrazol-4-yl)-3,4-dihydroquinolin-1(2H)-yl)-4,5,6,7-tetrahydro-1H-pyrazolo[4,3-c]pyridin-1-yl)piperidin-1-yl)acetamido)heptanamido)-N-(4-methyl-5-nitrothiazol-2-yl)benzamide] | D (degradation activity < 30%)
CC(=O)N1CCc2c(c(N3CCCc4cc(-c5cnn(C)c5)c(C(F)F)cc43)nn2C2CCN(CC(=O)NCCCCCCCNc3ccc(C(=O)Nc4ncc(C)s4)c(C)c3)CC2)C1 [CPD-194, 4-((7-(2-(4-(5-Acetyl-3-(7-(difluoromethyl)-6-(1-methyl-1H-pyrazol-4-yl)-3,4-dihydroquinolin-1(2H)-yl)-4,5,6,7-tetrahydro-1H-pyrazolo[4,3-c]pyridin-1-yl)piperidin-1-yl)acetamido)heptyl)amino)-2-methyl-N-(5-methylthiazol-2-yl)benzamide] | D (degradation activity < 30%)
CC(=O)N1CCc2c(c(N3CCCc4cc(-c5cnn(C)c5)c(C(F)F)cc43)nn2C2CCN(CC(=O)NCCCC(=O)Nc3ccccc3C(=O)Nc3nc(C)c([N+](=O)[O-])s3)CC2)C1 [CPD-211, 2-(4-(2-(4-(5-Acetyl-3-(7-(difluoromethyl)-6-(1-methyl-1H-pyrazol-4-yl)-3,4-dihydroquinolin-1(2H)-yl)-4,5,6,7-tetrahydro-1H-pyrazolo[4,3-c]pyridin-1-yl)piperidin-1-yl)acetamido)butanamido)-N-(4-methyl-5-nitrothiazol-2-yl)benzamide] | D (degradation activity < 30%)
CC(=O)N1CCc2c(c(N3CCCc4cc(-c5cnn(C)c5)c(C(F)F)cc43)nn2C2CCN(CC(=O)NCCCCC(=O)Nc3ccccc3C(=O)Nc3nc(C)c([N+](=O)[O-])s3)CC2)C1 [CPD-212, 2-(5-(2-(4-(5-Acetyl-3-(7-(difluoromethyl)-6-(1-methyl-1H-pyrazol-4-yl)-3,4-dihydroquinolin-1(2H)-yl)-4,5,6,7-tetrahydro-1H-pyrazolo[4,3-c]pyridin-1-yl)piperidin-1-yl)acetamido)pentanamido)-N-(4-methyl-5-nitrothiazol-2-yl)benzamide] | D (degradation activity < 30%)
CC(=O)N1CCc2c(c(N3CCCc4cc(-c5cnn(C)c5)c(C(F)F)cc43)nn2C2CCN(C(=O)CCCCCC(=O)Nc3ccccc3C(=O)Nc3nc(C)c([N+](=O)[O-])s3)CC2)C1 [CPD-202, 2-(7-(4-(5-Acetyl-3-(7-(difluoromethyl)-6-(1-methyl-1H-pyrazol-4-yl)-3,4-dihydroquinolin-1(2H)-yl)-4,5,6,7-tetrahydro-1H-pyrazolo[4,3-c]pyridin-1-yl)piperidin-1-yl)-7-oxoheptanamido)-N-(4-methyl-5-nitrothiazol-2-yl)benzamide] | D (degradation activity < 30%)
